Assay results as given in patent publication US20080306007A1, “AGENTS FOR PROPHYLAXIS OR TREATMENT OF NEUROLOGICAL RELATED DISEASES AND CONDITIONS” (Newcastle Innovation Limited, priority 2007, published 2008).

Legend:
[1] = molecular target: T1, dynamin I-syndapin I complex (Rattus norvegicus, UniProt Q9Z0W5); assay: Peptide disruption of immunoprecipitated dynamin I-syndapin I complex from nerve terminals; format: binding; settings: syndapin I or dynamin I immunoprecipitates incubated with peptide
T1 construct: Syndapin I or dynamin I were immunoprecipitated from nerve terminals; from tissue; host or cells: rat brain crude (P2) synaptosomes
T1 sequence (Q9Z0W5 whole entry, one chain of several): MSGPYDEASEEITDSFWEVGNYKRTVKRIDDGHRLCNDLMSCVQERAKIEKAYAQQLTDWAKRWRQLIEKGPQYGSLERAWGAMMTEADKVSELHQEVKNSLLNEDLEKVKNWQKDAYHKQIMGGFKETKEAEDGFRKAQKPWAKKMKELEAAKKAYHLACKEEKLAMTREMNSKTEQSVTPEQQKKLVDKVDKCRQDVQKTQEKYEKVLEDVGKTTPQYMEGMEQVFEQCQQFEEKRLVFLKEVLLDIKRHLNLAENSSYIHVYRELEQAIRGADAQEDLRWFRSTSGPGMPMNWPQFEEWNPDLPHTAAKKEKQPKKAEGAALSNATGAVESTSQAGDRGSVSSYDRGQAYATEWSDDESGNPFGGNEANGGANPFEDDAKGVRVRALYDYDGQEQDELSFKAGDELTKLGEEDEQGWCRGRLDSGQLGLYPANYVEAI
Protocol: (§1) To determine whether the phospho-box sequence might account for syndapin I recruitment to dynamin I, the ability of a DynI769-784AA peptide (FIG. 5a) to disrupt their interaction was tested. Syndapin I or dynamin I were immunoprecipitated from nerve terminals and the individual protein complexes were incubated with DynI769-784AA (SEQ ID No. 8) peptide (see below). Their interaction in both cases was reduced by the peptide, as indicated by the specific release of either binding partner from the bead-bound complex (FIG. 4c). No elution of endophilin I (FIG. 4c) or amphiphysin I (data not shown) was detected, highlighting the specificity of the interaction.
(§2) Crude (P2) synaptosomes were prepared from rat brain and lysed as described in Example 1.1.3. Synaptosome lysates were incubated with 5 μg of anti-syndapin I or […] pre-bound to protein G-sepharose (Roche) for 3 h at 4° C. Beads were washed with ice-cold PBS, eluted in SDS-PAGE sample buffer and blotted with anti-syndapin I, anti-endophilin I and anti-dynamin I antibodies.

[2] = molecular target: T2, dynamin I-endophilin I interaction (Rattus norvegicus, UniProt O35179); assay: Elution of endophilin I from immunoprecipitated complex by peptide; format: binding; settings: immunoprecipitated complex incubated with peptide
T2 construct: Syndapin I or dynamin I were immunoprecipitated from nerve terminals; from tissue; host or cells: rat brain crude (P2) synaptosomes
T2 sequence (O35179 whole entry): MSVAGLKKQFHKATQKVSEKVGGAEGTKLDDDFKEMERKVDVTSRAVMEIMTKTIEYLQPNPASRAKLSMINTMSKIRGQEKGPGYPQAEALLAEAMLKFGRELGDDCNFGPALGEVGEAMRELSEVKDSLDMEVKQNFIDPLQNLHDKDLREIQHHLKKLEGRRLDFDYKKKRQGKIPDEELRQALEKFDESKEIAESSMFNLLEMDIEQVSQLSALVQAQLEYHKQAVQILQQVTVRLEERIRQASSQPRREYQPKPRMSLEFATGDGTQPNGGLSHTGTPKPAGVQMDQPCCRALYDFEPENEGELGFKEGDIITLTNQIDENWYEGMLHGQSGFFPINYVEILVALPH
Protocol: as §1, §2

[3] = test system: synaptosomes (SV retrieval from the plasma membrane); assay: FM2-10 SV internalisation assay (purified SVs from synaptosomes); format: cell-based, rat
Protocol: (§3) Loading of FM2-10 (Molecular Probes) into recycling synaptosomal SVs was measured as previously described. Data is presented as Ca^2+-dependent FM2-10 unloading, which is the difference between release after loading in plus and minus Ca^2+ solutions. Where indicated, synaptosomes were preincubated with penetratin peptide for 30 min prior to stimulation of FM2-10 loading. […] The same assay was used to monitor the effect of penetratin peptide on SV exocytosis. However, in this instance, the synaptosomes were loaded with FM2-10 in plus Ca^2+ Krebs-like solution and, where indicated, were preincubated with penetratin peptide for 30 min prior to stimulation of FM2-10 unloading. Data is presented as Ca^2+-dependent FM2-10 unloading. The SV internalisation assay was performed as previously described.
If SVE was arrested before SV fission occurred, […]. SVs were purified and their fluorescence values were corrected for dye uptake in the absence of Ca^2+ (Ca^2+-dependent) and normalised to control (n=3, mean ±s.e.m.).

[4] = test system: synaptosomes (SV exocytosis); assay: KCl-evoked Ca2+-dependent glutamate release assay in synaptosomes; format: cell-based, rat; settings: peptide preincubated 30 min; KCl stimulation
Protocol: (§4) In all SV recycling studies synaptosomes were prepared from rat cerebral cortex by centrifugation on discontinuous percoll gradients (Dunkley et al. 1986). The glutamate release assay was performed as described before (Cousin and Robinson 2000a). Data is presented as Ca^2+-dependent glutamate release, calculated as the difference between release in plus and minus Ca^2+ solutions. Penetratin peptides (Genemed Synthesis) were preincubated with the synaptosomes for 30 min before stimulation and had no effect on Ca^2+-independent release of glutamate.
A block in SV turnover cannot be ascribed to an inhibition of SVE until an effect on exocytosis has been excluded. Two independent exocytosis assays were conducted to assess this: endogenous glutamate release and FM2-10 unloading. Neither the DynI769-784AA nor DynI769-784EE peptide had any significant effect on KCl-evoked Ca^2+-dependent glutamate release (DynI769-784AA […]±8.4% of control; DynI769-784EE […]±9.5% of control, FIG. 5c). Both peptides had small effects on FM2-10 unloading evoked by 30 mM KCl (DynI769-784AA −81.1±0.8% of control; DynI769-784EE −82.3±0.6% of control, FIG. 5d). Finally, the extent of SVE inhibition by the peptides was quantified by calculating “retrieval efficiency” which takes into account prior exocytosis; a value of less than one indicating a selective SVE inhibition. […]

[5] = test system: synaptosomes (glutamate release); assay: 4-AP evoked glutamate release (repetitive stimulation) in synaptosomes; format: cell-based, rat; settings: 4-AP 1 mM
Protocol: as §4
Selective inhibition of SVE by the phospho-box peptide should produce a rundown or fatigue of glutamate release after repeated stimuli, since the supply of SVs will progressively decline. To produce repetitive stimulation in synaptosomes the K^+ channel blocker 4-aminopyridine (4-AP) was used. This produces a tetrodotoxin-sensitive repetitive firing that mimics in vivo stimulation. It has previously been reported that 4-AP evokes continual SV recycling for at least 15 minutes in synaptosomes. […] The inset is also zoomed on the first 3 min from 4-AP addition (which was at 60 s) to highlight the lack of effect during the first 45s.

[6] = test system: synaptosomes (SV exocytosis); assay: FM2-10 unloading (SV exocytosis) assay in synaptosomes; format: cell-based, rat; settings: evoked by 30 mM KCl; peptide preincubated 30 min before unloading
Protocol: as §3
A block in SV turnover cannot be ascribed to an inhibition of SVE until an effect on exocytosis has been excluded. Two independent exocytosis assays were conducted to assess this: endogenous glutamate release and FM2-10 unloading. […] Finally, the extent of SVE inhibition by the peptides was quantified by calculating “retrieval efficiency” which takes into account prior exocytosis; a value of less than one indicating a selective SVE inhibition. […]

amphiphysin I = molecular target: T3, amphiphysin I (Rattus norvegicus, UniProt O08838); assay: Elution of amphiphysin I from immunoprecipitated complex by peptide; format: binding; settings: data not shown
T3 construct: Syndapin I or dynamin I were immunoprecipitated from nerve terminals; from tissue; host or cells: rat brain crude (P2) synaptosomes
T3 sequence (O08838 1-683): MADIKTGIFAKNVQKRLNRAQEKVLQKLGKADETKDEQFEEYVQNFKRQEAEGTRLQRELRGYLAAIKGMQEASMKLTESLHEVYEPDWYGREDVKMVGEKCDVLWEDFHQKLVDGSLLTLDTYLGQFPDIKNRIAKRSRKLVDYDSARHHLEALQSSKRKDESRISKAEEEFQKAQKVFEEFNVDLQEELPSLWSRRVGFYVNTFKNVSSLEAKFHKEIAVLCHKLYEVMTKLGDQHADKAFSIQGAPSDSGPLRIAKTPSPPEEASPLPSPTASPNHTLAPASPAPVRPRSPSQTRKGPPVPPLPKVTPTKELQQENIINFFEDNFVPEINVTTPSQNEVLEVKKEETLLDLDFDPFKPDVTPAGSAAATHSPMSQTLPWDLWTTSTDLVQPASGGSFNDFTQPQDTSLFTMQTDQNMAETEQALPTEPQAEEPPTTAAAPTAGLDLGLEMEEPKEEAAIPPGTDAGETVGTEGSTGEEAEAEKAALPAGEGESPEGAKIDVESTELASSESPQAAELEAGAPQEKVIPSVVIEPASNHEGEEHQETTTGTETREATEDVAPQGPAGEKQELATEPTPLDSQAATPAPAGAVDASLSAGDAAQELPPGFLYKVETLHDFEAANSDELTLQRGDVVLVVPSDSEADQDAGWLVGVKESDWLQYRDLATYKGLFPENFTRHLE
Protocol: as §1, §2

dynamin I-syndapin I interaction (release of binding partner from bead-bound complex) [1]: reduced
elution of endophilin I from complex [2]: No elution
elution of amphiphysin I from complex (amphiphysin I): No elution
Substance: DynI769-784AA: Dynamin I phospho-box mimetic peptide (residues 769-784), AA mutant, tagged with penetratin heptapeptide RRMKWKK (RRMKWKKPAGRRAPTSAPTPQRR; listed as Rattus norvegicus)
inhibition of FM2-10 accumulation in SVs [3]: approximately 35%
FM2-10 accumulation in purified SVs (Ca2+-dependent) ([3]; n=3, mean ± s.e.m.): 64.9±5.5 % of control
KCl-evoked Ca2+-dependent glutamate release [4]: 92.5±8.4 % of control
effect on the first 45 sec of 4-AP evoked exocytosis ([5]; first 45 sec): without effect
effect on 4-AP evoked glutamate release with continued stimulation ([5]; repetitive stimulation): activity-dependent depression of release that increased with continued stimulation
FM2-10 unloading [6]: 81.1±0.8 % of control
